Experimental data as given in ChEMBL document CHEMBL5136999, “Contemporary Medicinal Chemistry Strategies for the Discovery and Development of Novel HIV-1 Non-nucleoside Reverse Transcriptase Inhibitors” (J Med Chem, 2022).

Columns and labels:
[1] = test system: Human immunodeficiency virus 1; assay: Antiviral activity against HIV-1 harboring K103N/Y181C mutant infected in human MT2 cells assessed as protection against virus-induced cytopathicity; type: functional, organism-based; settings: Human immunodeficiency virus 1, MT2
[2] = Cytotoxicity against human MT2 cells assessed as cell viability; type: toxicity, cell-based
[3] = test system: Human immunodeficiency virus 1; assay: Antiviral activity against wild type HIV-1 IIIB infected in human MT2 cells assessed as protection against virus-induced cytopathicity; type: functional, organism-based; settings: Human immunodeficiency virus 1, IIIB
HOS = assay: Cytotoxicity against human HOS cells assessed as reduction in cell viability measured after 48 hrs; type: functional
[4] = Cytotoxicity against human MT4 cells assessed as cell viability by MTT assay; type: toxicity, cell-based
[5] = test system: Human immunodeficiency virus 1; assay: Antiviral activity against HIV-1 harboring K103N mutant infected in human MT4 cells assessed as protection against virus-induced cytopathicity by MTT assay; type: functional, organism-based; settings: Human immunodeficiency virus 1, MT4
[6] = test system: Human immunodeficiency virus 1; assay: Antiviral activity against wild type HIV-1 IIIB infected in human MT4 cells assessed as protection against virus-induced cytopathicity by MTT assay; type: functional, organism-based; settings: Human immunodeficiency virus 1, IIIB
[7] = test system: Human immunodeficiency virus 1; assay: Antiviral activity against HIV-1 harboring E138K mutant infected in human MT4 cells assessed as protection against virus-induced cytopathicity by MTT assay; type: functional, organism-based; settings: Human immunodeficiency virus 1, MT4
[8] = Oral bioavailability in Sprague-Dawley rat at 5 mg/kg measured up to 24 hrs by LC-MS analysis; type: ADME, organism-based; settings: in vivo
[9] = Metabolic stability in rat liver microsomes assessed as clearance; type: ADME, Microsome; settings: read-out: CLH
[10] = Metabolic stability in human liver microsomes assessed as clearance; type: ADME, Microsome; settings: read-out: CLH
[11] = test system: Human immunodeficiency virus 1; assay: Antiviral activity against HIV-1 harboring K101P mutant infected in human MT2 cells assessed as protection against virus-induced cytopathicity by MTT assay; type: functional, organism-based; settings: Human immunodeficiency virus 1, MT2
[12] = test system: Human immunodeficiency virus 1; assay: Antiviral activity against wild type HIV-1 IIIB infected in human MT2 cells assessed as protection against virus-induced cytopathicity by MTT assay; type: functional, organism-based; settings: Human immunodeficiency virus 1, IIIB
[13] = test system: Human immunodeficiency virus 1; assay: Antiviral activity against HIV-1 harboring K103N/Y181C mutant infected in human MT2 cells assessed as protection against virus-induced cytopathicity by MTT assay; type: functional, organism-based; settings: Human immunodeficiency virus 1, MT2
[14] = test system: Human immunodeficiency virus 1; assay: Antiviral activity against HIV-1 harboring Y181C mutant infected in human MT2 cells assessed as protection against virus-induced cytopathicity by MTT assay; type: functional, organism-based; settings: Human immunodeficiency virus 1, MT2

## Cc1c(Oc2ccccc2OCCn2ccc(=O)[nH]c2=O)cc(Cl)c2ccc(C#N)cc12
[1]
  EC50: 280 nM
[2]
  CC50: > 100000 nM
[3]
  EC50: 6.2 nM

## Cc1cc(/C=C/C#N)cc(C)c1Nc1ncc2ncn(-c3ccc(C#N)cc3)c2n1
HOS
  CC50: 21000 nM

## O=C1Nc2ccc(Cl)cc2[C@@](C#CC2CC2)(C(F)(F)F)O1 [EFAVIRENZ]
[4]
  CC50: > 40200 nM
[5]
  EC50: 147 nM
[6]
  EC50: 3.2 nM

## Cc1cc(/C=C/C#N)cc([N+](=O)[O-])c1Nc1nc(Nc2ccc(C#N)cc2)nc2ccc(Cl)cc12
[4]
  CC50: 3950 nM
[7]
  EC50: 17.7 nM
[8]
  bioavailability: 15.5%
[5]
  EC50: 10.2 nM
[9]
  microsomal CLint: 30.6 µL/min/mg
[6]
  EC50: 10.6 nM
[10]
  microsomal CLint: 14.4 µL/min/mg

## Cc1cc(C#N)cc(C)c1Oc1nc(Nc2ccc(C#N)cc2)nc(N)c1Br [ETRAVIRINE]
[4]
  CC50: > 4620 nM
[7]
  EC50: 10.9 nM
[5]
  EC50: 3.5 nM

## N#Cc1cc2c(Oc3ccccc3OCCn3ccc(=O)[nH]c3=O)cccn2c1
[11]
  EC50: 1 nM
[12]
  EC50: 380 nM
[13]
  EC50: 11 nM
[14]
  EC50: 310 nM

## C=CC(=O)N(C)c1cc(Oc2ccccc2OCCn2ccc(=O)[nH]c2=O)c(C)c2cc(C#N)ccc12
[1]
  EC50: 500 nM
[3]
  EC50: 560 nM

## Cc1cc(/C=C/C#N)cc(C)c1Nc1ccnc(Nc2ccc(C#N)cc2)n1 [RILPIVIRINE]
HOS
  CC50: 10000 nM

## Cc1cc(/C=C/C#N)cc([N+](=O)[O-])c1Nc1nc(Nc2ccc(C#N)cc2)nc2ccccc12
[4]
  CC50: 6140 nM
[7]
  EC50: 4.3 nM
[8]
  bioavailability: 16.5%
[5]
  EC50: 3.6 nM
[9]
  microsomal CLint: 33.2 µL/min/mg
[6]
  EC50: 3.4 nM
[10]
  microsomal CLint: 34.5 µL/min/mg

## Cc1ccnc2c1NC(=O)c1cccnc1N2C1CC1 [NEVIRAPINE]
[13]
  EC50: > 100000 nM
[14]
  EC50: > 100000 nM

## Cc1c(Oc2ccccc2OCCn2ccc(=O)[nH]c2=O)cc(N(C)C(=O)CCl)c2ccc(C#N)cc12
[1]
  EC50: 570 nM
[3]
  EC50: 580 nM

## Cc1cc(/C=C/C#N)cc(C)c1-n1cnc2cnc(Nc3ccc(C#N)cc3)nc21
HOS
  CC50: 42000 nM
